Assay results published in patent US5436231A, “Adenophostins” (Sankyo Company, Limited, priority 1991, dated 1995).

Legend:
[1] = system: endoplasmic reticulum (microsome) of rat cerebellum; experiment: 45Ca++ releasing activity from the endoplasmic reticulum; assay type: biochemical; conditions: 1 minute after addition, 30° C., pH 7.2; for calcium ion released of that incorporated into the endoplasmic reticulum: compound at 10 nM
Method: (§1) Adenophostins A and B were characterized by their inhibitory activity on [^3 H]-InsP3 binding to rat cerebellar InsP3 receptors, and the ^45 Ca^++ releasing activity from the endoplasmic reticulum, which was prepared from rat cerebellum.
^45 Ca^++ Releasing activity from the endoplasmic reticulum
The ^45 Ca^++ releasing activity from the endoplasmic reticulum was assayed using the method reported by Supattapone et al. [Proc. Natl, Acad. Sci. USA 85, 8747-8750 (1988)] with slight modifications.
The endoplasmic reticulum (microsome) of rat cerebellum was suspended in 10 mM of a HEPES-KOH buffer (pH 7.2) containing 100 mM of potassium chloride, 2.5 mM of magnesium chloride, 1 mM of dithiothreitol (DTT), 10 mM of creatine phosphate, creatine kinase (10 units/ml), 2 μg/ml of oligomycin, 50 μM of calcium chloride containing 1 μCi/ml of ^45 Ca, and 0.12 mM of ethylene glycol bis(2-aminoethyl ether)-N,N,N',N'-tetraacetic acid (EGTA), and the protein concentration in the suspension was adjusted to 0.5 mg/ml. 1 mM of adenosine triphosphate magnesium salt was added to 1 ml of this suspension, and the mixture was incubated for 11 minutes at 30° C. in order to incorporate the ^45 Ca^++ into the endoplasmic reticulum. InsP3, adenophostin A or adenophostin B was then added to release the incorporated ^45 Ca^++ from the endoplasmic reticulum. 10 minutes after the addition of the adenosine triphosphate magnesium salt (1 minute before the addition of the adenophostins or InsP3), and then 12 minutes after the addition of the adenosine triphosphate magnesium salt (1 minute after the addition of the adenophostins or InsP3), 100 μl of the reaction solution was removed, and the sampled solution was filtered through a Milipore filter (HA, […], Product of Milipore) to collect the. endoplasmic reticulum on the filter. The filter was washed with 4 ml of a 10 mM HEPES-KOH buffer (pH 7.2) containing 100 mM of potassium chloride and 1 mM of EGTA, and the radioactivity on the filter was determined by the addition of 5 ml of Pico-flow (a trade name for a product of Packard Co.) agents.

[2] = biological target: T1, rat cerebellar InsP3 receptors (Rattus norvegicus, UniProt P29994); experiment: Inhibitory activity on [3H]-InsP3 binding to InsP3 receptors; conditions: rat cerebellar membrane fraction; 10 nM [3H]-InsP3; 5 minutes, room temperature; pH 8.0; read-out: IC50 (concentration required to inhibit the binding of [3H]-InsP3 by 50%)
T1 construct: A rat cerebellar membrane fraction was homogenized; from tissue; host or cells: rat cerebellum, membrane fraction
T1 sequence (P29994 whole entry): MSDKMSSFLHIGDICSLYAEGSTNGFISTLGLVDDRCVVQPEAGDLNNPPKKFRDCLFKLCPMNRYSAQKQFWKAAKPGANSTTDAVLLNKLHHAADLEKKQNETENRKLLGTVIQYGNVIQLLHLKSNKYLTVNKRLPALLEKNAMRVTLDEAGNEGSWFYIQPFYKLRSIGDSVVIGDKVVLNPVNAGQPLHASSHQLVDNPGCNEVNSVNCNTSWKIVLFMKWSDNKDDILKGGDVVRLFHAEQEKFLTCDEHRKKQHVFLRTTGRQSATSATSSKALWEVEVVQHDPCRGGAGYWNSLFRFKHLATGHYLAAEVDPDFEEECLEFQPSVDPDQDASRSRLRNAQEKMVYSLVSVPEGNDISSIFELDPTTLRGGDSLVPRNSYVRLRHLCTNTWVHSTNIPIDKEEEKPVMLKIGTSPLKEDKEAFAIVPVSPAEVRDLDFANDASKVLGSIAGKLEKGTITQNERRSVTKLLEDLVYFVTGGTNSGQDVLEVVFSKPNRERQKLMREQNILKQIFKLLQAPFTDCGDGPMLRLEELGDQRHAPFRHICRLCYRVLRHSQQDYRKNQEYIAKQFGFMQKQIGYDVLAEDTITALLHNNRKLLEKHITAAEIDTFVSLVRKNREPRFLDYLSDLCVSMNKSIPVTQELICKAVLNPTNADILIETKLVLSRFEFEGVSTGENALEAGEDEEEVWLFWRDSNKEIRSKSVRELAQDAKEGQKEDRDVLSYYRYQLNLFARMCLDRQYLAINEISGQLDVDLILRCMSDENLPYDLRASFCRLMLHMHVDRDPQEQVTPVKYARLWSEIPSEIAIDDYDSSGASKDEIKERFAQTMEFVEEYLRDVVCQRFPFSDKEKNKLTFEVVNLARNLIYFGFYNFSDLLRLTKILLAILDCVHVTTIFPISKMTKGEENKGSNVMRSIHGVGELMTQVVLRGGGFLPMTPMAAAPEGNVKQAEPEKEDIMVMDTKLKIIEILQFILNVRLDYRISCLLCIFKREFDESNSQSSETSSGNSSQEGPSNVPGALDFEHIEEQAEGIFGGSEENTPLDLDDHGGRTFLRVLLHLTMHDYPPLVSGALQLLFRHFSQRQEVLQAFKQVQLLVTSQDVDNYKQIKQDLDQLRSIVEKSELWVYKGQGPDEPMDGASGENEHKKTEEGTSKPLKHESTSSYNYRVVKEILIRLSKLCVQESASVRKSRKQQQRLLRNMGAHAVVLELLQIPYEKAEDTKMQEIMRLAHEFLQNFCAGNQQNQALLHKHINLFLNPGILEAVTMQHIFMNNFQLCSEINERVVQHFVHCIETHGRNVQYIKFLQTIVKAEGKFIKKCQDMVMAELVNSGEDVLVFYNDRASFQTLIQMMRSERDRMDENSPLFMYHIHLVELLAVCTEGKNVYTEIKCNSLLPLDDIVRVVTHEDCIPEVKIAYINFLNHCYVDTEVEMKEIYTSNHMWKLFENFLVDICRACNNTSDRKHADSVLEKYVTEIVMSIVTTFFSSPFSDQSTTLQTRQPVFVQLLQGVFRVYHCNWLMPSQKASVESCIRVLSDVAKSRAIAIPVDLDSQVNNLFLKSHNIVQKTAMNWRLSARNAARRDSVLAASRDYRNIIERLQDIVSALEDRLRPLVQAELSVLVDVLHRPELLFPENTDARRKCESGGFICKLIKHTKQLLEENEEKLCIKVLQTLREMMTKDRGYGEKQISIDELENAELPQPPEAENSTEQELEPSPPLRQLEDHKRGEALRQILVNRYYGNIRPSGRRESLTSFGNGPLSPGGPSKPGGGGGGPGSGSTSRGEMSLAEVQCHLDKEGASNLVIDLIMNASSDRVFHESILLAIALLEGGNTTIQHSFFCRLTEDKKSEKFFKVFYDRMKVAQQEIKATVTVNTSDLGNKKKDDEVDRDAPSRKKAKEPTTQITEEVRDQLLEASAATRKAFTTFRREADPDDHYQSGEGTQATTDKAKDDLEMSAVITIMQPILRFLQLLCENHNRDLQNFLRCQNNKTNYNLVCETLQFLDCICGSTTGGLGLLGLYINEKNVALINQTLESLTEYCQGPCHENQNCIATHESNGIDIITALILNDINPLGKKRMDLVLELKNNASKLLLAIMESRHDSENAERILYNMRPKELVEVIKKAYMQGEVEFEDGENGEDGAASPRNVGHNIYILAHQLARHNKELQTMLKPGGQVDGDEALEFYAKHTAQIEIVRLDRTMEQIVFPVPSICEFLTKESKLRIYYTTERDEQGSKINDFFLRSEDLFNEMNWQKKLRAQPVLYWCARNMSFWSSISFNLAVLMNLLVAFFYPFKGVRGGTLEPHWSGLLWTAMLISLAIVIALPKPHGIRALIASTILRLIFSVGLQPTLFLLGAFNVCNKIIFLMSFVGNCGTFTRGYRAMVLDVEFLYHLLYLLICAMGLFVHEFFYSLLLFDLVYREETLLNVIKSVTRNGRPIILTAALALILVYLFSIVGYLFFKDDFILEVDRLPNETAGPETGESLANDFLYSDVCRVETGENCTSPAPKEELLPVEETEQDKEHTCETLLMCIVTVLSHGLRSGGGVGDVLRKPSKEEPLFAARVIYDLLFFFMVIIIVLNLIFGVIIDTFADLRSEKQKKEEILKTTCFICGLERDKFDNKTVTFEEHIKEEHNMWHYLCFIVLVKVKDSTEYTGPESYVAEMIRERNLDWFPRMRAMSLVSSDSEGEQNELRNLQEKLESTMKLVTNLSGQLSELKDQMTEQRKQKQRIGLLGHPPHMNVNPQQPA
Method: as §1
Inhibitory activity on [^3 -H]-InSP3 binding to InsP3 receptors
The inhibitory activity of [^3 H]-InsP3 binding was assayed according to the method of Worley et al. [J. Biol. Chem. 262, 12132-12136 (1987)].
A rat cerebellar membrane fraction was homogenized in 50 mM of Tris-HC1 (pH 8.0) and 1 mM of ethylenediaminetetraacetic acid, and the protein concentration in the homogenized material was adjusted to 0.6 mg/ml. 1 ml of this cerebellar homogenate was taken and 10 nM of [^3 H]-InsP3and either adenophostin A or adenophostin B were added to it. The mixture was incubated for 5 minutes at room temperature, and then centrifuged for 5 minutes at 12,000 rpm at a temperature of 4° C. The supernatant was removed and the precipitated cerebellar membrane fraction was dissolved in 5 ml of Pico-flow (a trade name for a product of Packard Co.) to determine its radioactivity. The bound [^3 H]-InsP3 was then determined.
IC50 indicates the concentration required to inhibit the binding of [^3 H]-InsP3 by 50%.

Solubility = assay type: physicochemical; conditions: for Solubility in lower alcohols: such as methanol or ethanol

Structure (SMILES)	calcium ion released of that incorporated into the endoplasmic reticulum (adenophostin activities at 10 nM stated equal to that of InsP3) ([1]; InsP3 at 10 μM) [%]	IC50 [2] [nM]	Solubility in acetone, ethyl acetate or chloroform (Solubility)	Solubility in lower alcohols (Solubility)	Solubility in water and dimethyl sulfoxide (Solubility)	calcium ion released of that incorporated into the endoplasmic reticulum [1] [%]
O=P(O)(O)O[C@@H]1[C@H](O)[C@H](O)[C@@H](OP(=O)(O)O)[C@H](OP(=O)(O)O)[C@H]1O [InsP3, inositol 1,4,5-trisphosphate, reference compound]	35	–	–	–	–	–
Nc1ncnc2c1ncn2[C@@H]1O[C@H](CO)[C@@H](O[C@H]2O[C@H](CO)[C@@H](OP(=O)(O)O)[C@H](OP(=O)(O)O)[C@H]2O)[C@H]1OP(=O)(O)O [adenophostin A]	–	6	insoluble	slightly soluble	Soluble	35
CC(=O)OC[C@H]1O[C@H](O[C@H]2[C@@H](OP(=O)(O)O)[C@H](n3cnc4c(N)ncnc43)O[C@@H]2CO)[C@H](O)[C@@H](OP(=O)(O)O)[C@@H]1OP(=O)(O)O [adenophostin B]	–	8	insoluble	slightly soluble	Soluble	35
